Legend:
[1] = test system: LC3-associated phagocytosis (LAP); assay: LC3-GFP accumulation in BMDCs (LAP activation); assay type: cell-based, mouse; conditions: Rubicon+/- BMDCs
Protocol: Quantification of LC3-GFP accumulation upon 2 h treatment of BMDCs with PBS, B. fragilis WT-OMV, ΔPSA-OMV or purified PSA in Rubicon^+/− or Rubicon^−/− DCs. Error bars represent S.E.M. **** p<0.0001. Data are representative of 3 independent experiments.

[2] = test system: CD4+CD25- responder effector T cells (Teff); assay: In vitro T cell suppression assay; assay type: cell-based, mouse; conditions: Tregs from co-cultures with Atg16L1ΔCD11c BMDCs
Protocol: CD4^+CD25^+ Treg cells were purified from in vitro BMDC-T cell co-cultures using magnetic microbeads (Miltenyi). CD4^+CD25^− responder effector T cells (Teff) were isolated from mouse spleens, labeled with 2.5 μM CFSE for 10 min at 37° C. in the dark, washed, and incubated with Treg cells at various Treg:Teff ratios in the presence of 1 μg/ml anti-mouse CD3 (eBiosciences). Irradiated CD4-depleted mouse splenocytes served as antigen-presenting cells. Cultures were incubated for 48 and 72 hrs, cells were stained with specific antibodies and a viability dye, and analyzed by flow cytometry. Dilution of CFSE signal is a measure of proliferation, and inhibition of proliferation a measure of Treg activity.

[3] = test system: CD4+Foxp3+ regulatory T cells (Tregs); assay: In vitro DC-T cell co-culture: pulsed BMDCs co-cultured with CD4+ T cells; assay type: cell-based, mouse
Protocol: Co-culture of bone marrow-derived dendritic cells (BMDCs) and CD4^+ T cells were performed as previously described (30, 32, 36). Briefly, BMDCs were generated from bone marrow progenitor cells isolated from femurs of WT or Atg16L1^ΔCD11c mice in the presence of 20 ng/ml GM-CSF (Miltenyi) in complete RPMI media 1640 (10% fetal bovine serum, 50 U/ml penicillin, 50 μg/ml streptomycin, 2 mM L-glutamine, 1 mM sodium pyruvate, 1 mM HEPES, and non-essential amino acids, and β-mercaptoethanol). BMDCs were pulsed with PBS, WT-OMVs (10 μg/ml), ΔPSA-OMVs (10 μg/ml) or pure PSA (50 μg/ml) for 18-22 hrs; OMVs with a protein content of 10 μg contain 50 μg of PSA. […]
(§1) Cells were incubated in 5% mouse serum for 15 min and stained for 20 min at 4° C. with either LIVE/DEAD fixable green or far red dead stain kit (Life Technologies), with empirically titrated concentrations of the following antibodies: PerCP-Cy5.5-conjugated anti-mouse CD4 (clone: RM4-5), PerCP-Cy5.5-conjugated anti-human CD4 (clone: OKT4), and/or PE-Cy7-conjugated anti-mouse CD4 (clone: RM4-5). […] Cell acquisition was performed on a BD FACS Calibur (BD Biosciences) or Miltenyi MACSQuant (Miltenyi), and data was analyzed using FlowJo software suite (TreeStar). For ELISAs, cell supernatant from in vitro DC-T cell co-culture were collected and mouse IL-10 and IL-17A were measured using commercially available kits (eBiosciences).

[4] = test system: CD4+Foxp3+ Tregs; assay: Human MoDC - syngeneic CD4+ T cell co-culture; assay type: cell-based; conditions: cells from most subjects, regardless of genotype
Protocol: To generate monocyte-derived dendritic cell (MoDCs), human PBMCs were isolated from fresh whole blood the same day of harvest using Ficoll-Hypaque (GE Healthcare) gradient (density=1.070 g/ml), followed by monocyte enrichment using the Human Monocyte Isolation Kit II (Miltenyi). For differentiation into MoDCs, monocytes were incubated with recombinant human IL-4 and GM-CSF (Peprotech) every two days in complete RPMI 1640 (5% human AB serum, 50 U/ml penicillin, 50 μg/ml streptomycin, 2 mM L-glutamine, 1 mM sodium pyruvate, 1 mM HEPES, non-essential amino acids, […]). […]
as §1

Polysaccharide A [PSA]
Accumulation of membrane-bound LC3-GFP (LC3-II) / LAP activation [1]: neither APSA-OMVs nor purified PSA are able to activate LAP | Treg suppressive activity [2]: does not require ATG16L1 to promote suppressive Treg activity | IL-10 production ([3]; ATG16L1-deficient (Atg16L1ΔCD11c) DCs): does not require ATG16L1 for its activity | IL-10 production among CD4+Foxp3- type 1 regulatory T cells ([3]; WT or Atg16L1ΔCD11c DCs): Neither WT-OMVs nor pure PSA have any effect | Response (IL-10 among CD4+Foxp3+ Tregs) [4]: respond to purified PSA
